# Data taken from patent US20140186325A1, “Methods of Cancer Treatment and Prevention Through the Modulation of SIRT4 Activity” (President and Fellows of Harvard College, priority 2011, published 2014).
# How the values were obtained:
# Assay type in all cases: cell-based
# SIRT4 protein [1] = assay: SIRT4 protein expression by western blot, MEF cells
# SIRT4 protein [2] = assay: SIRT4 protein expression by western blot, HEK293T cells
# SIRT4 KO cells = assay: Glutamine uptake of SIRT4 KO cells with glutaminolysis inhibitors; details: for glutamine uptake: 10 μM BPTES, 50 μM EGCG
# Procedure: (§1) As described above, SIRT4 represses glutamine-derived mitochondrial anaplerosis. This node was investigated further using a pharmacological and genetic approach. GLS is the first required enzyme for mitochondrial glutamine metabolism, and catalyzes the hydrolysis of glutamine to glutamate and ammonia. […] Drugs that block glutamate dehydrogenase (GDH) activity were also examined. There were no effects of a GDH inhibitor, 50 μM of Epigallocatechin gallate (EGCG), in glutamine uptake. Moreover, SIRT4 overexpression could no longer inhibit glutamine uptake and ammonia production when GLS1 was targeted using short hairpin RNA (shRNA) (FIG. 13b, c). Finally, cells were treated with chemical inhibitors of mitochondrial glutaminolysis in order to probe the model that suppressing this node could block the repression of glutamine uptake by DNA damage.
# HepG2 cells [3] = assay: Metabolite levels in culture media (BioProfile FLEX analyzer), HepG2 cells; details: 14 μM for 12 hours
# Procedure: (§2) The relationship between glutamine metabolism and DNA damage was investigated. HepG2 cells and MEF cells were treated with either 14 μM camptothecin (CPT) for 12 hours or 50 J/m^2 ultra-violet (UV) radiation, both of which are known to induce DNA damage in cells. Glucose, glutamine, lactate and ammonia (NH4^+) levels in culture media were measured using the BioProfile FLEX analyzer (Nova Biomedical) according to the manufacturer's instructions.
# MEF cells = assay: Metabolite levels in culture media (BioProfile FLEX analyzer), MEF cells; details: 14 μM for 12 hours
# Procedure: as §2
# SIRT4 = SIRT4 expression level after genotoxic stress, HEK293T cells; details: 14 μM CPT, 25 μM ETS, 48 μM tunicamycin
# Excerpt: The relationship between sirtuin expression and DNA damage was next investigated.
# SIRT4 KO MEFs = assay: Proliferation of SIRT4 KO MEFs; details: SIRT4 KO versus WT MEFs cultured with BPTES
# Procedure: To test whether enhanced glutamine metabolism drove the proliferative phenotype of KO cells, cells were cultured with BPTES and proliferation was measured.
# [4] = test system: mitochondrial glutaminolysis; assay: Repression of glutamine uptake by UV in the presence of inhibitors of mitochondrial glutaminolysis; details: in the presence of the inhibitor
# Procedure: as §1
# HeLa cells = assay: Proliferation of control and SIRT4-expressing HeLa cells; details: media containing BPTES
# HepG2 cells [5] = assay: Relative ATP/ADP ratio of HepG2 cells stably expressing human SIRT4 or SIRT4 mutant; details: CPT (14 μM) + oligomycin (5 g/ml) for 18 hours
# Procedure: The relationship between SIRT4 and mitochondrial metabolism was next investigated. The relative ATP/ADP ratio of HepG2 cells that stably expressed human SIRT4 or SIRT4 mutant was measured following treatment with DMSO, CPT (14 μM) or CPT+oligomycin ([…]) for 18 hours.
compound,measurement,setting,value
"COc1cc([C@@H]2c3cc4c(cc3[C@@H](O[C@@H]3O[C@@H]5CO[C@@H](C)O[C@H]5[C@H](O)[C@H]3O)[C@H]3COC(=O)[C@H]23)OCO4)cc(OC)c1O [ETS, etoposide]",SIRT4 protein expression,SIRT4 protein [1],increased SIRT4 protein expression
same,SIRT4 protein expression,SIRT4 protein [2],increased SIRT4 protein expression
"O=C(O[C@@H]1Cc2c(O)cc(O)cc2O[C@@H]1c1cc(O)c(O)c(O)c1)c1cc(O)c(O)c(O)c1 [EGCG, Epigallocatechin gallate]",glutamine uptake,SIRT4 KO cells,no effects
"CC[C@@]1(O)C(=O)OCc2c1cc1n(c2=O)Cc2cc3ccccc3nc2-1 [CPT, camptothecin]",NH4+ production,HepG2 cells [3],significant reductions
same,glutamine consumption,HepG2 cells [3],significant reductions
same,NH4+ production,MEF cells,significant reductions
same,glutamine consumption,MEF cells,significant reductions
same,SIRT4 protein expression,SIRT4 protein [1],increased SIRT4 protein expression
same,level of SIRT4 expression versus length of exposure,SIRT4,correlated with the length of time
same,SIRT4 protein expression,SIRT4 protein [2],increased SIRT4 protein expression
"O=C(Cc1ccccc1)Nc1nnc(CCSCCc2nnc(NC(=O)Cc3ccccc3)s2)s1 [BPTES, bis-2-(5-phenylacetoamido-1,2,4-thiadiazol-2-yl)ethyl sulfide]",increased proliferation of KO cells,SIRT4 KO MEFs,completely abrogated
same,repression of glutamine uptake by UV treatment,[4],could no longer repress glutamine uptake
same,proliferation of control and SIRT4-expressing cells,HeLa cells,proliferated at similar rates
same,increased glutamine consumption of SIRT4 KO cells,SIRT4 KO cells; 10 μM,rescued
same,glutamine uptake,SIRT4 KO cells,repressed glutamine uptake
CC[C@H]1/C=C/C=C/C[C@@H](C)[C@H](O)[C@@](C)(O)C(=O)[C@@H](C)[C@H](O)[C@@H](C)C(=O)[C@@H](C)[C@H](O)[C@@H](C)/C=C/C(=O)O[C@@H]2[C@H](C)[C@H](CC1)O[C@]1(CC[C@H](C)[C@H](C[C@@H](C)O)O1)[C@H]2C [oligomycin],difference in ATP/ADP ratio between SIRT4 and mutant SIRT4 over-expressing cells after CPT,HepG2 cells [5],difference disappeared
tunicamycin,level of SIRT4 expression versus length of exposure,SIRT4,correlated with the length of time
